# Measurements: US11712438B2, “Phenyl derivatives as PGE2 receptor modulators” (IDORSIA PHARMACEUTICALS LTD, priority 2017, dated 2023)
# pIC50: −log10 of the molar value.
# Columns and labels:
# Experiment in all cases: cell-based
# [1] = target: PTGER2 (EP2) (Homo sapiens, UniProt P43116)
# [2] = target: EP2 (Homo sapiens, UniProt P43116);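 further: SF295 glioblastoma cells with endogenous EP2 only, PGE2-stimulated cAMP accumulation read by HTRF competitive immunoassay, 45 min pre-incubation then 30 min at room temperature, IBMX in buffer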
# Protocol: The antagonistic activities of the compounds of formula (I) on the EP2 and EP4 receptors are also determined in accordance with the following experimental method.
# Human tumor cell lines expressing endogenously either EP4 or EP2 are used and cAMP accumulation in cells upon PGE2 stimulation is monitored. SF295 glioblastoma cells express high endogenous EP2 and no EP4,whereas BT549 breast cancer cells, express high endogenous EP4 levels and very low EP2 levels.
# As a detection method for cAMP the HTRF (homogeneous time resolved fluorescence) Cisbio kit (HTRF cAMP dynamic 2 kit 20′000 tests Cisbio Cat. #62AM4PEC) was used, which is based on a competitive immunoassay using a Cryptate-labeled anti-cAMP antibody and d2-labeled cAMP. Native cAMP produced by cells or unlabeled cAMP (for the standard curve) compete with exogenously added d2-labeled cAMP (acceptor) for binding to monoclonal anti-cAMP-Eu3+ Cryptate (donor). A FRET signal (Fluorescence Resonance Energy Transfer) is obtained only if the labeled anti-cAMP antibody binds the d2 labelled cAMP, thus the specific signal (i.e. energy transfer) is inversely proportional to the concentration of cAMP in the standard or sample.
# The SF295 cells (NCI/No. 0503170) are detached from culture dishes with a cell dissociation buffer (Invitrogen, 13151-014), and collected in growing medium (GM: RPM11640 (Invitrogen 21875)/10% FCS, 1% Penicilin/streptomycin). Cells are counted washed and resuspended in assay buffer (AB; HBSS, 20 mM HEPES, 0.2% BSA; 2 mM IBMX). 4′000 cells in 5 μl of AB are seeded per well of a small volume 384 well plate (black with flat bottom, Greiner 784076).
# PGE2 (Cayman 14010, stock solution: 750 in DMSO) is used as agonist at 75 nM final concentration, corresponding to EC80.
# Two point five microliters of diluted compounds are transferred into the assay plate. Plate is pre-incubated 45 minutes at room temperature. Subsequently, 2.5 microliters of PGE2 (final conc. 75 nM) are transferred into the assay plate. Plate is incubated 30 minutes at room temperature.
# For each compound concentration the percentage of cAMP compared to DMSO control value as average±STDEV (each concentration is measured in duplicate) is calculated.
# [3] = target: EP4 (Homo sapiens, UniProt P35408);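 further: inhibition of PGE2-evoked (6 nM) cAMP accumulation in BT549 breast cancer cells endogenously expressing EP4, cAMP read by HTRF competitive immunoassay after 30 min at room temperature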
# [4] = target: PTRGER4 (EP4) (Homo sapiens, UniProt P35408);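 further: assay plate preincubated 15 min at 37 °C, after which PGE2 was added at 20 nM final and incubation continued 120 min at 37 °C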
# PTRGER4 (EP4), sequence (P35408 whole entry): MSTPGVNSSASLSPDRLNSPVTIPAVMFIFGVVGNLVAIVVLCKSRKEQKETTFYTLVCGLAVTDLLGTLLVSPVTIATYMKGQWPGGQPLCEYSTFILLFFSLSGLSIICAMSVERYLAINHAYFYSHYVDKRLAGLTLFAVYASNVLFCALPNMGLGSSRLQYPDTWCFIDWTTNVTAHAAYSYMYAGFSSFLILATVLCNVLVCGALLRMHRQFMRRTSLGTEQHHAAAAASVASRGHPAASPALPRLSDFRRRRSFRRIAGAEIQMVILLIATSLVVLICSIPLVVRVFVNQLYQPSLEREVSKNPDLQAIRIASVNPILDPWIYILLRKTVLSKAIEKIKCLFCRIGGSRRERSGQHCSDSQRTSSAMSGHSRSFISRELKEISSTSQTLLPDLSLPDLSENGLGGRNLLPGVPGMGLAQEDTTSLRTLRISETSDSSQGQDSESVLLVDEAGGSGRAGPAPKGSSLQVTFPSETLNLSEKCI
# EP4, sequence (P35408 whole entry): as above
# EP2, sequence (P43116 whole entry): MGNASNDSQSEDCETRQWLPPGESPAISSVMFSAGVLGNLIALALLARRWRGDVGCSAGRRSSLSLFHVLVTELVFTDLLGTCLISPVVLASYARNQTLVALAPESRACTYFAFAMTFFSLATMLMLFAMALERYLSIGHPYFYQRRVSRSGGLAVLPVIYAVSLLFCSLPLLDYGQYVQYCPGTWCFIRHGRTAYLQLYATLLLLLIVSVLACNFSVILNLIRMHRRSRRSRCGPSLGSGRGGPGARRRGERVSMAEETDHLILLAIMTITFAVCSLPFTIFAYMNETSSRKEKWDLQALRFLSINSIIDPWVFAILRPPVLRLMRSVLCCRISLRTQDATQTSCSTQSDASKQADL
# PTGER2 (EP2), sequence (P43116 whole entry): as above
SMILES,pIC50 [1],pIC50 [2],pIC50 [3],pIC50 [4]
"CCOc1cc(Br)ccc1CCNc1cc(-c2ccc(C(=O)O)c(OCC)c2)ncn1 [Example 51, 4-{6-[2-(4-Bromo-2-ethoxy-phenyl)-ethylamino]-pyrimidin-4-yl}-2-ethoxy-benzoic acid]",7.41,7.14,6.16,–
"CCOc1cc(-c2cc(NCCc3cccc(C(F)(F)F)c3)ncn2)sc1C(=O)O [Example 61, 3-Ethoxy-5-{6-[2-(3-trifluoromethyl-phenyl)-ethylamino]-pyrimidin-4-yl}-thiophene-2-carboxylic acid]",–,6.15,6.79,6.44
"COc1cccc(CCNc2cc(-c3cc(C(F)(F)F)c(C(=O)O)s3)ncn2)c1 [Example 63, 5-{6-[2-(3-Methoxy-phenyl)-ethylamino]-pyrimidin-4-yl}-3-trifluoromethyl-thiophene-2-carboxylic acid]",–,6.19,6.98,6.63
"CCOc1cc(-c2cc(NCCc3cc(OC)cc(OC)c3)ncn2)sc1C(=O)O [Example 67, 5-{6-[2-(3,5-Dimethoxy-phenyl)-ethylamino]-pyrimidin-4-yl}-3-ethoxy-thiophene-2-carboxylic acid]",–,6.15,6.61,6.58
"CCOc1cc(-c2cc(NCCc3ccc(O)cc3)ncn2)sc1C(=O)O [Example 69, 3-Ethoxy-5-{6-[2-(4-hydroxy-phenyl)-ethylamino]-pyrimidin-4-yl}-thiophene-2-carboxylic acid]",–,6.42,6.77,6.04
"CCOc1cc(-c2cc(NCCc3ccc(OC)c(Br)c3)ncn2)sc1C(=O)O [Example 74, 5-{6-[2-(3-Bromo-4-methoxy-phenyl)-ethylamino]-pyrimidin-4-yl}-3-ethoxy-thiophene-2-carboxylic acid]",–,6.27,7.48,7.05
"CCOc1cc(-c2cc(NCCc3cccc(Cl)c3)ncn2)sc1C(=O)O [Example 77, 5-{6-[2-(3-Chloro-phenyl)-ethylamino]-pyrimidin-4-yl}-3-ethoxy-thiophene-2-carboxylic acid]",–,6.38,6.97,6.92
"CCOc1cc(-c2cc(NCCc3cccc(Br)c3)ncn2)sc1C(=O)O [Example 79, 5-{6-[2-(3-Bromo-phenyl)-ethylamino]-pyrimidin-4-yl}-3-ethoxy-thiophene-2-carboxylic acid]",–,6.39,6.97,6.69
"CCOc1cc(-c2cc(NCCc3cccc(F)c3)ncn2)sc1C(=O)O [Example 81, 3-Ethoxy-5-{6-[2-(3-fluoro-phenyl)-ethylamino]-pyrimidin-4-yl}-thiophene-2-carboxylic acid]",–,6.50,6.90,6.26
"CCOc1cc(-c2cc(NCCc3ccc(C)c(C)c3)ncn2)sc1-c1noc(=O)[nH]1 [Example 83, 3-(5-{6-[2-(3,4-Dimethyl-phenyl)-ethylamino]-pyrimidin-4-yl}-3-ethoxy-thiophen-2-yl)-[1,2,4]oxadiazol-5(4H)-one]",–,6.68,7.89,7.85
"CCOc1cc(-c2cc(NCCc3ccc(Br)cc3OC(F)(F)F)ncn2)sc1-c1noc(=O)[nH]1 [Example 84, 3-(5-{6-[2-(4-Bromo-2-trifluoromethoxy-phenyl)-ethylamino]-pyrimidin-4-yl}-3-ethoxy-thiophen-2yl)-[1,2,4]oxadiazol-5(4H)-one]",–,6.45,6.78,6.94
"CCOc1cc(-c2cc(NCCc3ccc(Cl)cc3NC)ncn2)sc1-c1noc(=O)[nH]1 [Example 91, 3-(5-{6-[2-(4-Chloro-2-methylamino-phenyl)-ethylamino]-pyrimidin-4-yl}-3-ethoxy-thiophen-2yl)-[1,2,4]oxadiazol-5(4H)-one]",–,5.55,6.47,7.38
"CCOc1cc(-c2cc(NCCc3ccc(C(F)(F)F)cc3F)ncn2)sc1-c1noc(=O)[nH]1 [Example 93, 3-(3-Ethoxy-5-{6-[2-(2-fluoro-4-trifluoromethyl-phenyl)-ethylamino]-pyrimidin-4-yl}-thiophen-2yl)-[1,2,4]oxadiazol-5(4H)-one]",–,6.29,8.22,8.52
"CCOc1cc(-c2cc(NCCc3ccc(Br)cc3CC)ncn2)sc1-c1noc(=O)[nH]1 [Example 104, 3-(5-{6-[2-(4-Bromo-2-ethyl-phenyl)-ethylamino]-pyrimidin-4-yl}-3-ethoxy-thiophen-2-yl)-[1,2,4]oxadiazol-5(4H)-one]",–,6.02,6.40,7.00
"CCOc1cc(-c2cc(NCCc3ccc(Br)cc3N3CCCC3)ncn2)sc1-c1noc(=O)[nH]1 [Example 112, 3-(5-{6-[2-(4-Bromo-2-pyrrolidin-1-yl-phenyl)-ethylamino]-pyrimidin-4-yl}-3-ethoxy-thiophen-2yl)-[1,2,4]oxadiazol-5(4H)-one]",–,6.05,6.72,7.10
"CCOc1cc(-c2cc(NCCc3ccc(OC)c(Cl)c3)ncn2)sc1-c1noc(=O)[nH]1 [Example 122, 3-(5-{6-[2-(3-Chloro-4-methoxy-phenyl)-ethylamino]-pyrimidin-4-yl}-3-ethoxy-thiophen-2yl)-[1,2,4]oxadiazol-5(4H)-one]",–,6.04,7.72,8.10
"CCOc1cc(-c2cc(NCCc3ccc(Br)cc3)ncn2)sc1C(N)=O [Example 128, 5-{6-[2-(4-Bromo-phenyl)-ethylamino]-pyrimidin-4-yl}-3-ethoxy-thiophene-2-carboxylic acid amide]",–,6.20,6.63,7.47
"CCOc1cc(-c2cc(NCCc3ccc(Br)cc3)ncn2)sc1C(=N)NO [Example 129, 5-{6-[2-(4-Bromo-phenyl)-ethylamino]-pyrimidin-4-yl}-3-ethoxy-N-hydroxy-thiophene-2-carboxamidine]",–,6.43,6.61,7.35
"CCOc1cc(-c2cc(NCCc3ccc(Br)cc3)ncn2)sc1-c1noc(=S)[nH]1 [Example 132, 3-(5-{6-[2-(4-Bromo-phenyl)-ethylamino]-pyrimidin-4-yl}-3-ethoxy-thiophen-2-yl)-[1,2,4]oxadiazole-5(4H)-thione]",–,6.23,7.22,8.22
"NC(=O)c1sc(-c2cc(NCCc3c(F)cc(Br)cc3F)ncn2)cc1C(F)(F)F [Example 134, 5-{6-[2-(4-Bromo-2,6-difluoro-phenyl)-ethylamino]-pyrimidin-4-yl}-3-trifluoromethyl-thiophene-2-carboxylic acid amide]",–,6.55,6.14,7.01

# Continued, values first:
pIC50 [1],pIC50 [2],pIC50 [3],pIC50 [4],SMILES
–,6.43,6.02,6.39,"CCOc1cc(-c2cc(NCCc3ccc(Br)cc3)ncn2)sc1Cc1noc(=O)[nH]1 [Example 137, 3-(5-{6-[2-(4-Bromo-phenyl)-ethylamino]-pyrimidin-4-yl}-3-ethoxy-thiophen-2-ylmethyl)-[1,2,4]oxadiazol-5(4H)-one]"
–,6.54,6.83,8.22,"CCOc1cc(-c2cc(NCCc3ccc(Br)cc3)ncn2)sc1-c1noc(N)n1 [Example 139, {6-[5-(5-Amino-[1,2,4]oxadiazol-3-yl)-4-ethoxy-thiophen-2-yl]-pyrimidin-4-yl}-[2-(4-bromo-phenyl)-ethyl]-amine]"
–,6.46,6.66,7.92,"CCOc1cc(-c2cc(NCCc3ccc(Br)cc3)ncn2)sc1-c1noc(OC)n1 [Example 140, [2-(4-Bromo-phenyl)-ethyl]-{6-[4-ethoxy-5-(5-methoxy-[1,2,4]oxadiazol-3-yl)-thiophen-2-yl]-pyrimidin-4-yl}-amine]"
–,6.42,6.77,8.10,"CCOc1cc(-c2cc(NCCc3ccc(Br)cc3)ncn2)sc1-c1noc(NCCO)n1 [Example 141, 2-[3-(5-{6-[2-(4-Bromo-phenyl)-ethylamino]-pyrimidin-4-yl}-3-ethoxy-thiophen-2-yl)-[1,2,4]oxadiazol-5-ylamino]-ethanol]"
–,6.00,6.36,6.90,"CCOc1cc(-c2cc(NCCc3ccc(Br)cc3)ncn2)sc1CCc1noc(=O)[nH]1 [Example 144, 3-[2-(5-{6-[2-(4-Bromo-phenyl)-ethylamino]-pyrimidin-4-yl}-3-ethoxy-thiophen-2-yl)-ethyl]-[1,2,4]oxadiazol-5(4H)-one]"
–,6.19,6.04,5.64,"NC(=O)Cc1ccc(-c2cc(NCCc3ccc(Br)cc3)ncn2)s1 [Example 158, 2-(5-{6-[2-(4-Bromo-phenyl)-ethylamino]-pyrimidin-4-yl}-thiophen-2-yl)-acetamide]"
–,6.50,6.59,6.87,"CCOc1cc(-c2cc(NCCc3cc(Cl)ccc3C#N)ncn2)sc1-c1noc(=O)[nH]1 [Example 160, 4-Chloro-2-(2-{6-[4-ethoxy-5-(5-oxo-4,5-dihydro-[1,2,4]oxadiazol-3-yl)-thiophen-2-yl]-pyrimidin-4-ylamino}-ethyl)-benzonitrile]"
–,6.15,7.40,8.00,"CCOc1cc(-c2cc(NCCc3ccc(N(C)C)cc3F)ncn2)sc1-c1noc(=O)[nH]1 [Example 161, 3-(5-{6-[2-(4-Dimethylamino-2-fluoro-phenyl)-ethylamino]-pyrimidin-4-yl}-3-ethoxy-thiophen-2-yl)[1,2,4]oxadiazol-5(4H)-one]"
–,6.06,5.92,6.50,"CCOc1cc(-c2cc(NCCc3ccc(Br)cc3)ncn2)sc1CC(N)=O [Example 287, 2-(5-{6-[2-(4-Bromo-phenyl)-ethylamino]-pyrimidin-4-yl}-3-ethoxy-thiophen-2-yl)-acetamide]"
–,6.13,6.11,5.92,"Brc1ccc(CCNc2cc(-c3ccc(Cc4nnn[nH]4)s3)ncn2)cc1 [Example 288, [2-(4-Bromo-phenyl)-ethyl]-{6-[5-(1H-tetrazol-5-ylmethyl)-thiophen-2-yl]-pyrimidin-4-yl}-amine]"
